From publication PMC8761912, “Cryptosporidium parvum Pyruvate Kinase Inhibitors With in vivo Anti-cryptosporidial Efficacy” (Frontiers in Microbiology, 2022)
pEC50: −log10 of the molar value.

Assays:
C. parvum [1] = test system: C. parvum; set-up: method as in Li et al., 2019; conditions: reported value; ref Li et al., 2019; read-out: in vitro anti-Cryptosporidium EC50; cited from earlier work
C. parvum [2] = assay: In vivo efficacy in C. parvum-infected IFN-γ KO mice, fecal oocysts load by qPCR; set-up: species or system Cryptosporidium parvum; conditions: paromomycin 1,000 mg/kg oral once daily from day 3 PI
Procedure: (§1) Eight weeks old male interferon-gamma knockout (IFN-γ KO) mice (B6.129S7-Ifng^TM1Ts/J) were purchased from The Jackson Laboratory, United States, and allowed to quarantine and acclimatize for 1 week before the commencement of experiments. Before the start of the infection assays in mice, the tolerability of each inhibitor was determined by daily oral gavage with varying dosages (0–10 mg/kg mouse bodyweight) in groups of mice (n = 3 mice per group) for 8 days. During this period, mice were monitored daily for any changes in physical and mental activity, feeding, body weight, body temperature, fur condition, and body posture. […] Mice were divided into infected and uninfected groups (n = 3 mice per group) and each individual mouse was housed in a separate cage lined with sterile gauze bedding. Each mouse from the infected group was infected by oral gavage administration of 10^4 C. parvum AUCP-1 isolate oocysts suspended in 50 μl of PBS. Beginning day 3 PI, groups of mice were orally treated with CpPyK inhibitors (at the specified doses), sham (100 μl of 5% DMSO in PBS), or 1,000 mg/kg paromomycin (in sterile water) once daily for a total of 8 days. Fecal pellets were collected daily in individual sterile 15 ml tubes, and submerged in an equivalent volume of PBS containing a cocktail of penicillin (100 units/ml), streptomycin (100 μg/ml), chloramphenicol (34 μg/ml), and amphotericin (0.25 μg/ml), and stored at 4°C until use. Three independent replicate infection assays were performed. Mice were sacrificed at day 11 PI, and 5 cm of the distal small intestine just anterior to the cecum was resected and submerged in 10% neutral buffered formalin and submitted for histopathological processing in the Comparative Biosciences Histology Laboratory at the University of Illinois at Urbana-Champaign. Briefly, intestinal tissues preserved in 10% neutral buffered formalin were washed in 70% ethanol, embedded in paraffin, and sectioned transversely at a thickness of 5 μm. Sections were stained with hematoxylin and eosin. The slides were imaged using a Zeiss microscope fitted with a color camera.
DNA was isolated from 250 mg of feces collected from individual mice using the QIAamp® PowerFecal® Pro DNA kit (Qiagen, United States) following the manufacturer’s protocol. Oocysts load per gram of feces was measured by quantitative real time PCR (qPCR) analysis of the Cp18s rRNA gene (GenBank accession number AF164102) using gene-specific primers: 5′-[…]-3′ (Forward) and 5′-[…]-3′ (Reverse), described previously ([Parr et al., 2007]). To generate a quantification standard curve, fecal samples were obtained from uninfected mice and spiked with 10^8 C. parvum oocysts per gram of feces, followed by isolation of DNA as described above. Ten-fold serial dilutions of the extracted DNA were made and used as quantification standards for qPCR. C. parvum oocysts load quantification for the test mice was performed using DNA samples from the infected feces. Each 20 μl qPCR reaction contained 10 μl of PowerUp™ SYBR™ Green Master Mix (Applied Biosystems, United States), 500 nM of each primer, and 2 μl of DNA template. After 2 min of initial denaturation at 95°C, 40 cycles of denaturation at 95°C for 15 sec and annealing/extension at 60°C for 1 min were performed in a 7500 Real-Time PCR System (Applied Biosystems, United States). The oocyst load per gram of feces was derived by the 7500-system software using the generated quantification standard curves (Supplementary Figure 1).

C. parvum [3] = assay: Histopathology of distal small intestine of C. parvum-infected IFN-γ KO mice; assay type: in vivo, Cryptosporidium parvum; conditions: 1,000 mg/kg daily oral from day 3 PI, sacrificed day 11 PI
Procedure: as §1

In the case of `NC[C@@H]1O[C@H](O[C@H]2[C@@H](O)[C@H](O[C@@H]3[C@@H](O)[C@H](N)C[C@H](N)[C@H]3O[C@H]3O[C@H](CO)[C@@H](O)[C@H](O)[C@H]3N)O[C@@H]2CO)[C@H](N)[C@@H](O)[C@@H]1O` [Paromomycin, reference compound], the pEC50 (C. parvum [1]) is given as 3.35, the “oocysts load by day 9 PI vs other treatments and untreated group” value (C. parvum [2]) is given as “significantly (P < 0.05) lower oocysts loads” and the “intestinal pathology (histology, distal small intestine)” value (C. parvum [3]) is given as “notably reduced pathological changes”.
